What was measured:
[1] = test system: Nf1, Rasa1, and Pten mutant oncogene-negative lung tumors; test: Drug efficacy study in TC mice with oncogene-negative lung tumors (Tuba-seq, imaging, histology); format: in vivo, mouse; conditions: tumors from sgNf1/sgRasa1/sgPten vectors, capivasertib 100 mg/kg, RMC-4550 30 mg/kg, gavage, two weeks, 3.5 months after tumor initiation, vs vehicle
Description: For drug efficacy studies, TC mice (8-12 weeks old) were divided into 4 groups randomly. They received the vehicle, capivasertib (100 mg/kg, Med Chem Express), RMC-4550 (30 mg/kg, Med Chem Express), or a combination of both dissolved in 10% DMSO, 40% PEG, 5% Tween 80, and 45% PBS through a gavage needle. Mice were treated daily with drugs for eight days, and the treatment was stopped for two days for recovery, and it continued for two more days before the tissue harvest.
Tumors were initiated by intratracheal delivery of pooled or individual Lenti-sgRNA/Cre vectors. Barcoded Lenti-sgRNA/Cre vectors within each viral pool are indicated in each figure. […]
For DNA extraction from single dissected tumors to generate libraries for Tuba-seq, targeted sequencing of selected oncogenes, and whole-exome sequencing, we used Qiagen AllPrep DNA/RNA Micro kit. […] Three cell lines (100,000 to 500,000 cells each) were added to each mouse lung sample before lysis to enable the calculation of the absolute number of neoplastic cells in each tumor from the number of sgID-BC reads. […] The concentration and quality of the purified libraries were determined using the Agilent High Sensitivity DNA kit (Agilent Technologies, 5067-4626) on the Agilent 2100 Bioanalyzer (Agilent Technologies, G2939BA). […]
The FASTQ files were parsed to identify the sgID and barcode (BC) for each read. […]

[2] = test system: RAS and PI3K signaling; test: Immunoblot of oncogene-negative cell lines treated with drugs; format: cell-based, mouse; conditions: 3 oncogene-negative cell lines, 10 uM, 24 hours
Description: (§1) Cell lines were generated from tumors initiated in Trp53^flox/flox; TC BL6 mice four months after transduction with Lenti-sgNf1-sgRasa1-sgPten/Cre. After dissociation of tumors (described below), cells were cultured in the regular media.
For apoptosis and proliferation assays, 3×10^5 cells were seeded into 6-well plates and allowed to adhere overnight in regular growth media and cultured in the presence or absence 10 uM of Capivasertib, RMC-4550, or a combination of both drugs. After 24 hours, the protein was extracted using RIPA lysis buffer (Thermo Fisher Scientific, 89900) and proteinase/phosphatase inhibitor cocktail (Thermo Fisher Scientific, 78442). Protein concentration was measured using BCA protein assay kit (Thermo Fisher Scientific, 23250). Proteins (30 ug from each sample) were separated by SDS-PAGE and immunoblotted and transferred to polyvinyl difluoride (PVDF) membranes (BioRad, 162-0177) according to standard protocols. Membranes were immunoblotted with antibodies against phosphor-ERK (Cell Signaling Technology, 4370), ERK (Cell Signaling Technology, 9102), phosphor-AKT (Thermo Fisher Scientific, 44-621G), AKT (Cell Signaling Technology, 4691), phospho-S6 (Cell Signaling Technology, 4858), S6 (Cell Signaling Technology, 2217), and HSP90 (BD Bioscience, 610418). […]

[3] = test system: Nf1, Rasa1, and Pten-mutant lung adenocarcinoma cell-lines; test: Clonogenic growth assay and Loewe synergy, mouse oncogene-negative cell lines; format: cell-based; conditions: three mouse cell lines, various doses, four days, crystal violet
Description: as §1
For clonogenic assays, cells were seeded in triplicate into 24-well plates (4000 cells per well) and allowed to adhere overnight in regular growth media. Cells were then cultured in the absence or presence of the drug as indicated on each figure panel in complete media for 4 days. Growth media with or without drugs was replaced every 2 days. The remaining cells were stained with 0.5% crystal violet in 20% methanol and photographed using a digital scanner. Relative growth was quantified by densitometry after extracting crystal violet from the stained cells using 100% methanol.
Drug synergism was analyzed using SynergyFinder (https://synergyfinder.fimm.fi) web application. The degree of combination synergy, or antagonism, is quantified by comparing the observed drug combination response against the expected response, calculated using Loewe's model that assumes no interaction between drugs.

## Cc1nc(N2CCC3(CC2)CO[C@@H](C)[C@H]3N)c(CO)nc1-c1cccc(Cl)c1Cl [RMC-4550]
[1]
  total tumor burden (Tuba-seq analysis): reduced the total tumor burden significantly
[2]
  RAS signaling (immunoblot): reduced
[3]
  overall growth of oncogene-negative cell lines: decreased the overall growth of three oncogene-negative RAS/PI3K cell lines in a dose-dependent manner

## NC1(C(=O)N[C@@H](CCO)c2ccc(Cl)cc2)CCN(c2ncnc3[nH]ccc23)CC1 [capivasertib]
[1]
  total tumor burden (Tuba-seq analysis): ineffective
[2]
  PI3K signaling (immunoblot): reduced
[3]
  overall growth of oncogene-negative cell lines: decreased the overall growth of three oncogene-negative RAS/PI3K cell lines in a dose-dependent manner
